SMILES strings stand for the structures. Like-named read-outs stand apart in the source and are kept apart here.

The subject of one experiment is NF-κB. In words: NF-κB assay: THP1-NF-κB-LUC cells, LPS-stimulated secreted luciferase. To be noted: THP1-NF-κB-LUC cells, read-out: IC50 (NF-κB assay). It counts as cell-based. An outline of the steps:
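THP1-NF-κB-LUC cells (25k/well) were pretreated with compounds for 2 h, then stimulated with LPS (10 ng/mL) for 18 h. Secreted luciferase was measured and normalized to vehicle, and IC50 was fitted from the concentration series.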

The next experiment concerns TNF release. Put plainly: TNF assay: TNF release from LPS-stimulated human PBMCs (TNF ELISA). It counts as cell-based. To be noted: PBMC, read-out: IC50 (TNF assay). An outline of the steps: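 Human PBMCs at 10k/well pretreated with compound dilutions 2 h, then stimulated with LPS (10 ng/mL) for 18 h. TNF in supernatants quantified by ELISA; IC50 for inhibition of TNF release fitted from concentration–response.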

Where [1] appears, read: LPS-stimulated human PBMCs, TNF ELISA.
The mark [2] stands for this setting: compounds 2 hours before LPS (10 ng/mL) for 18 hours, secreted luciferase.
The mark [3] stands for this setting: human PBMCs, compounds 2 hours before LPS (10 ng/ml) for 18 hours, supernatant TNF ELISA.

Take `O=C(NCCN1CCOCC1)c1ccc2nc(-c3ccc(F)cc3)c(-c3ccc(F)cc3)nc2c1` [BC19237]: the IC50 was less than 100 nM in the experiment on NF-κB (LPS-stimulated) and more than 10000 nM with TNF release (setting [1]).
The corresponding values for `Fc1ccc(-c2nc3ccc(-c4nnnn4CCN4CCOCC4)cc3nc2-c2ccc(F)cc2)cc1` [BC19238] are less than 100 nM and more than 10000 nM.
The corresponding values for `O=C(Nc1ccc2nc(-c3ccc(F)cc3)c(-c3ccc(F)cc3)nc2c1)OCC(F)(F)F` [BC19239] are 100 to 1000 nM and more than 10000 nM.
Taken in the same sequence, the figures for `Fc1ccc(-c2nc3ccc(-c4cn(CCN5CCOCC5)nn4)cc3nc2-c2ccc(F)cc2)cc1` [BC19240] were less than 100 nM and more than 10000 nM.
For the compound `Cc1nc(C)c(-c2ccc3nc(-c4ccc(F)cc4)c(-c4ccc(F)cc4)nc3c2)s1` [BC19241], the concentration for half-maximal inhibition (IC50) with NF-κB (LPS-stimulated) was 1000 to 10000 nM; in the experiment on TNF release (setting [1]) it was more than 10000 nM.
Taken in the same sequence, the figures for `Fc1ccc(-c2nc3ccc(-c4cccnc4)cc3nc2-c2ccc(F)cc2)cc1` [BC19242] were 100 to 1000 nM and more than 10000 nM.
Taken in the same sequence, the figures for `CS(=O)(=O)c1cncc(-c2ccc3nc(-c4ccc(F)cc4)c(-c4ccc(F)cc4)nc3c2)c1` [BC19243] were 100 to 1000 nM and more than 10000 nM.
For the compound `CN1CCOc2cc(-c3ccc4nc(-c5ccc(F)cc5)c(-c5ccc(F)cc5)nc4c3)ccc21` [BC19244], the IC50 in the experiment on NF-κB (LPS-stimulated) and with TNF release (setting [1]) was more than 10000 nM throughout.
For `Fc1ccc(-c2nc3ccc(-c4ccncc4)cc3nc2-c2ccc(F)cc2)cc1` [BC19245], the IC50 in the experiment with NF-κB (LPS-stimulated) is 1000 to 10000 nM; in the experiment on TNF release (setting [1]), more than 10000 nM.
Taken in the same sequence, the figures for `CCc1nnc(-c2ccc3nc(-c4ccc(F)cc4)c(-c4ccc(F)cc4)nc3c2)o1` [BC19246] were 1000 to 10000 nM and more than 10000 nM.
The corresponding values for `CCCc1nnc(-c2ccc3nc(-c4ccc(F)cc4)c(-c4ccc(F)cc4)nc3c2)[nH]1` [BC19247] are 1000 to 10000 nM and more than 10000 nM.
Taken in the same sequence, the figures for `CS(=O)(=O)c1ccc(-c2nc3ccc(-c4ncco4)cc3nc2-c2ccc(F)cc2)s1` [BC19248] were more than 10000 nM and more than 10000 nM.
Regarding `Cc1cnc(-c2ccc3nc(-c4ccc(F)cc4)c(-c4cccs4)nc3c2)o1` [BC19249], the IC50 was 1000 to 10000 nM in the experiment with NF-κB (LPS-stimulated) and more than 10000 nM with TNF release (setting [1]).
The corresponding values for `Fc1ccc(-c2nc3ccc(-c4nnco4)cc3nc2-c2ccc(F)cc2)cc1` [BC19250] are less than 100 nM and more than 10000 nM.
The corresponding values for `O=C(Nc1ccc2nc(-c3ccc(F)cc3)c(-c3ccc(F)cc3)nc2c1)C1CCNCC1` [BC19251] are less than 100 nM and 1000 to 10000 nM.
Turning to `O=c1c(S(=O)(=O)c2ccc(F)c(F)c2)c[nH]c2c(F)ccc(F)c12` [BC19252], the half-inhibitory concentration (IC50) in the experiment on NF-κB (setting [2]) is less than 100 nM; in the experiment on TNF release (setting [3]) it was more than 10000 nM.
The corresponding values for `Cc1ccc(F)c2[nH]cc(S(=O)(=O)c3ccc(F)c(F)c3)c(=O)c12` [BC19253] are less than 100 nM and more than 10000 nM.
Turning to `Cc1ccc(Cl)c2c(=O)c(S(=O)(=O)c3ccc(F)c(F)c3)c[nH]c12` [BC19254], the results for the IC50 in the experiment on NF-κB (setting [2]) and in the experiment on TNF release (setting [3]) were less than 100 nM and more than 10000 nM, respectively.
The corresponding values for `COc1ccc(OC)c2c(=O)c(S(=O)(=O)c3ccc(F)c(F)c3)c[nH]c12` [BC19255] are 1000 to 10000 nM and more than 10000 nM.
Taken in the same sequence, the figures for `O=c1c(S(=O)(=O)c2ccc(F)c(F)c2)c(O)[nH]c2ncccc12` [BC19256] were 1000 to 10000 nM and more than 10000 nM.
Taken in the same sequence, the figures for `O=c1c(S(=O)(=O)c2ccc(F)c(F)c2)cnc2ccccn12` [BC19257] were more than 10000 nM and more than 10000 nM.
Consider `Cc1ccc(S(=O)(=O)c2c(O)[nH]c3ncccc3c2=O)cc1` [BC19258], for which the values for the IC50 in the experiment with NF-κB (setting [2]) and in the experiment with TNF release (setting [3]) were 1000 to 10000 nM and more than 10000 nM, respectively.
The corresponding values for `O=c1c(S(=O)(=O)c2ccc(Cl)cc2)c(O)[nH]c2ncccc12` [BC19259] are 1000 to 10000 nM and more than 10000 nM.
`Cc1ccc(S(=O)(=O)c2nc(-c3ccccc3)oc2S(C)(=O)=O)cc1` [BC19260]: the IC50 in the experiment on NF-κB (LPS-stimulated) and with TNF release (setting [1]) was less than 100 nM in each case.
`CS(=O)(=O)c1oc(-c2ccccc2)nc1S(=O)(=O)c1cccc(F)c1` [BC19261]: the IC50 with NF-κB (LPS-stimulated) was less than 100 nM; with TNF release (setting [1]), more than 10000 nM.
Taken in the same sequence, the figures for `CS(=O)(=O)c1oc(-c2ccccc2)nc1S(=O)(=O)c1ccc(F)c(F)c1` [BC19262] were 100 to 1000 nM and less than 100 nM.
With `Cc1ccc(S(=O)(=O)c2nc(-c3ccccc3)oc2S(=O)(=O)C(C)C)cc1` [BC19263], the IC50 in the experiment on NF-κB (LPS-stimulated) and in the experiment with TNF release (setting [1]) was 100 to 1000 nM each time.
As for `CCCS(=O)(=O)c1oc(-c2ccccc2)nc1S(=O)(=O)c1ccc(C)cc1` [BC19264], the figures for the IC50 in the experiment on NF-κB (LPS-stimulated) and in the experiment on TNF release (setting [1]) were less than 100 nM and 100 to 1000 nM, respectively.
Taken in the same sequence, the figures for `Cc1ccc(S(=O)(=O)c2nc(-c3ccccc3)oc2S(=O)(=O)CC2CC2)cc1` [BC19265] were less than 100 nM and 100 to 1000 nM.
Taken in the same sequence, the figures for `COCCS(=O)(=O)c1oc(-c2ccccc2)nc1S(=O)(=O)c1ccc(C)cc1` [BC19266] were less than 100 nM and less than 100 nM.
Taken in the same sequence, the figures for `Cc1ccc(S(=O)(=O)c2nc(-c3ccccc3)oc2S(=O)(=O)C2CCCCC2)cc1` [BC19267] were less than 100 nM and 100 to 1000 nM.
Take `CCC[S+]([O-])c1oc(-c2ccccc2)nc1S(=O)(=O)c1cccc(F)c1` (centres unmarked) [BC19268]: the IC50 in the experiment with NF-κB (LPS-stimulated) was 100 to 1000 nM; with TNF release (setting [1]), less than 100 nM.
The corresponding values for `CC(C)S(=O)(=O)c1oc(-c2ccccc2)nc1S(=O)(=O)c1cccc(F)c1` [BC19269] are 100 to 1000 nM and less than 100 nM.
The corresponding values for `CC(C)CS(=O)(=O)c1oc(-c2ccccc2)nc1S(=O)(=O)c1cccc(F)c1` [BC19270] are less than 100 nM and less than 100 nM.
Taken in the same sequence, the figures for `O=S(=O)(CC1CC1)c1oc(-c2ccccc2)nc1S(=O)(=O)c1cccc(F)c1` [BC19271] were 100 to 1000 nM and less than 100 nM.
In the case of `COCC[S+]([O-])c1oc(-c2ccccc2)nc1S(=O)(=O)c1cccc(F)c1` (centres unmarked) [BC19272], the IC50 in the experiment with NF-κB (LPS-stimulated) and in the experiment with TNF release (setting [1]) was less than 100 nM throughout.
`CCCS(=O)(=O)c1oc(-c2ccccc2)nc1S(=O)(=O)c1ccc(F)c(F)c1` [BC19273]: the IC50 in the experiment with NF-κB (LPS-stimulated) and in the experiment with TNF release (setting [1]) was 100 to 1000 nM each time.
Consider `CC(C)S(=O)(=O)c1oc(-c2ccccc2)nc1S(=O)(=O)c1ccc(F)c(F)c1` [BC19274], for which the IC50 in the experiment with NF-κB (LPS-stimulated) was less than 100 nM; in the experiment with TNF release (setting [1]), 100 to 1000 nM.
The corresponding values for `CC(C)CS(=O)(=O)c1oc(-c2ccccc2)nc1S(=O)(=O)c1ccc(F)c(F)c1` [BC19275] are less than 100 nM and less than 100 nM.
Taken in the same sequence, the figures for `COCCS(=O)(=O)c1oc(-c2ccccc2)nc1S(=O)(=O)c1ccc(F)c(F)c1` [BC19276] were 100 to 1000 nM and less than 100 nM.
As to `O=S(=O)(c1ccc(F)c(F)c1)c1nc(-c2ccccc2)oc1S(=O)(=O)C1CCCCC1` [BC19277], the half-maximal inhibitory concentration (IC50) in the experiment with NF-κB (LPS-stimulated) is less than 100 nM; with TNF release (setting [1]), 100 to 1000 nM.
Taken in the same sequence, the figures for `CC(C)CS(=O)(=O)c1oc(-c2ccccc2)nc1S(=O)(=O)c1ccc(Cl)cc1` [BC19278] were less than 100 nM and less than 100 nM.
Taken in the same sequence, the figures for `CS(=O)(=O)c1sc(-c2ccccc2)nc1S(=O)(=O)c1ccc(F)c(F)c1` [BC19279] were 100 to 1000 nM and 100 to 1000 nM.

The record behind these values is patent US12606528B2, “Methods and materials for inhibiting NF-kB activity” (University of Pittsburgh - Of the Commonwealth System of …, priority 2019, dated 2026).
